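96-well plates; 48 h exposure; 5 concentrations. Endpoints by linear interpolation between flanking doses. Not reached: highest tested concentration assigned. GI50 is the concentration that inhibits growth by half.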 Activity calls are given as the source filed them. No stated cut-off is given here; in the data, active = GI50 up to about 1.1 µM and inactive = higher.
Key:
Assay in all cases: growth of human tumour cells (NCI), 48 h
[1] = test system: SNB-19
[2] = test system: NCI-H460
[3] = test system: COLO 205
[4] = test system: RPMI-8226
[5] = test system: XF498
[6] = test system: IGROV-1
[7] = test system: OVCAR-8
[8] = test system: KM-20L2
[9] = test system: UACC-62
[10] = test system: LOX IMVI
[11] = test system: SW-620
[12] = test system: SF-268
[13] = test system: NCI-H23
[14] = test system: SK-MEL-5
[15] = test system: EKVX
[16] = test system: HT-29
[17] = test system: ACHN
[18] = test system: A549
[19] = test system: HOP-62
[20] = test system: SF-295
[21] = test system: LXFL 529
[22] = test system: 786-0
[23] = test system: HCC 2998
[24] = test system: OVCAR-4
[25] = test system: CCRF-CEM
[26] = test system: HCT-15
[27] = test system: SK-MEL-28
[28] = test system: NCI-H226
[29] = test system: OVCAR-3
[30] = test system: RXF 393
[31] = test system: HCT-116
[32] = test system: A498
[33] = test system: SK-MEL-2
[34] = test system: SF-539
[35] = test system: TK-10
[36] = test system: M14
[37] = test system: SR
[38] = test system: DLD-1
[39] = test system: DMS-273
[40] = test system: UACC-257
[41] = test system: DMS-114
[42] = test system: K562
[43] = test system: UO-31
[44] = test system: HL-60
[45] = test system: U-251
[46] = test system: SNB-75
[47] = test system: MOLT-4
[48] = test system: Malme-3M
[49] = test system: RXF 631
[50] = test system: SN12C
[51] = test system: M19-MEL
[52] = test system: CAKI-1
[53] = test system: HOP-18
[54] = test system: OVCAR-5
[55] = test system: KM12
[56] = test system: SK-OV-3
[57] = test system: HOP-92

With `CC(C)c1cccc(C(C)C)c1NC(=S)NN=C1C=C(C(C)(C)C)C(=O)C(C(C)(C)C)=C1` the GI50 [1] was 22.3 µM (inactive), the GI50 [2] was 25.6 µM (inactive) and the GI50 [3] was 20.1 µM (inactive). The GI50 [4] was 27.2 µM (inactive), the GI50 [5] was 22.8 µM (inactive) and the GI50 [6] was 26 µM (inactive). For the same molecule, the GI50 [7] was 17.8 µM (inactive), the GI50 [8] was 24.2 µM (inactive) and the GI50 [9] was 20.3 µM (inactive). The GI50 [10] was 18.2 µM (inactive), the GI50 [11] was 28.5 µM (inactive) and the GI50 [12] was 34.3 µM (inactive). The GI50 [13] was 16.9 µM (inactive), the GI50 [14] was 21 µM (inactive) and the GI50 [15] was 33.5 µM (inactive). The GI50 [16] was 33 µM (inactive), the GI50 [17] was 34.4 µM (inactive) and the GI50 [18] was 19.9 µM (inactive). For the same molecule, the GI50 [19] was 16.5 µM (inactive), the GI50 [20] was 31 µM (inactive) and the GI50 [21] was 32.3 µM (inactive). The GI50 [22] was 18.9 µM (inactive), the GI50 [23] was 23.5 µM (inactive) and the GI50 [24] was 17.3 µM (inactive). The GI50 [25] was 22.7 µM (inactive), the GI50 [26] was 37.3 µM and the GI50 [27] was 34.4 µM (inactive). For the same molecule, the GI50 [28] was 10 µM (inactive), the GI50 [29] was 22.5 µM (inactive) and the GI50 [30] was 16.7 µM (inactive). The GI50 [31] was 3.59 µM (inactive), the GI50 [32] was 17.9 µM (inactive) and the GI50 [33] was 20.2 µM (inactive). The GI50 [34] was 19.9 µM (inactive), the GI50 [35] was 30.4 µM (inactive) and the GI50 [36] was 41.6 µM (inactive). The GI50 [37] was 35.3 µM (inactive), the GI50 [38] was 36.4 µM (inactive) and the GI50 [39] was 29.9 µM (inactive). The GI50 [40] was 18.9 µM (inactive), the GI50 [41] was 7.26 µM (inactive) and the GI50 [42] was 23.3 µM (inactive). For the same molecule, the GI50 [43] was 29.6 µM (inactive), the GI50 [44] was 26.1 µM (inactive) and the GI50 [45] was 16.2 µM (inactive). The GI50 [46] was 21.2 µM (inactive), the GI50 [47] was 28.7 µM (inactive) and the GI50 [48] was 27.3 µM (inactive). For the same molecule, the GI50 [49] was 9.95 µM (inactive) and the GI50 [50] was 22.2 µM (inactive).
With `CC(C)(Oc1ccc(/C=C/C(=O)c2ccc(Cl)cc2)cc1)C(=O)Nc1c(Cl)cccc1Cl` the GI50 [51] was 14.1 µM (inactive), the GI50 [1] was 33.8 µM (inactive) and the GI50 [2] was 31.6 µM (inactive). For the same molecule, the GI50 [3] was 17.8 µM (inactive), the GI50 [5] was 17.7 µM (inactive) and the GI50 [6] was 26.9 µM (inactive). For the same molecule, the GI50 [7] was 14.1 µM (inactive), the GI50 [8] was 20.3 µM (inactive) and the GI50 [9] was 17.3 µM (inactive). The GI50 [10] was 16 µM (inactive), the GI50 [11] was 12.8 µM (inactive) and the GI50 [12] was 28.5 µM (inactive). For the same molecule, the GI50 [13] was 17.3 µM (inactive), the GI50 [14] was 18.2 µM (inactive) and the GI50 [15] was 57.8 µM (inactive). The GI50 [16] was 13.3 µM (inactive), the GI50 [17] was 20.9 µM (inactive) and the GI50 [18] was 31.4 µM (inactive). For the same molecule, the GI50 [19] was 72.3 µM (inactive), the GI50 [20] was 25.8 µM (inactive) and the GI50 [21] was 13.9 µM (inactive). For the same molecule, the GI50 [22] was 19.6 µM (inactive), the GI50 [23] was 25.4 µM (inactive) and the GI50 [24] was 23.4 µM (inactive). The GI50 [52] was 23.7 µM (inactive), the GI50 [53] was 80.4 µM (inactive) and the GI50 [54] was 41.1 µM (inactive). The GI50 [55] was 11.8 µM (inactive), the GI50 [26] was 15.1 µM and the GI50 [27] was 16.1 µM (inactive). For the same molecule, the GI50 [28] was 25.5 µM (inactive), the GI50 [29] was 19.5 µM (inactive) and the GI50 [30] was 20.6 µM (inactive). The GI50 [31] was 6.03 µM (inactive), the GI50 [32] was 17.1 µM (inactive) and the GI50 [33] was 42.3 µM (inactive). The GI50 [34] was 14.6 µM (inactive), the GI50 [35] was 59.4 µM (inactive) and the GI50 [36] was 17.5 µM (inactive). For the same molecule, the GI50 [37] was > 100 µM (inactive), the GI50 [38] was 13.7 µM (inactive) and the GI50 [56] was 34 µM (inactive). For the same molecule, the GI50 [40] was 30.9 µM (inactive), the GI50 [41] was 11.6 µM (inactive) and the GI50 [57] was 15.7 µM (inactive). For the same molecule, the GI50 [42] was > 100 µM (inactive), the GI50 [43] was 24.4 µM (inactive) and the GI50 [45] was 12.5 µM (inactive). For the same molecule, the GI50 [46] was 29.4 µM (inactive), the GI50 [47] was 6.32 µM (inactive) and the GI50 [48] was 19.7 µM (inactive). For the same molecule, the GI50 [49] was 19.5 µM (inactive) and the GI50 [50] was 15 µM (inactive).

Source: ChEMBL document CHEMBL1201862, “PubChem BioAssay data set” (2004)
